From patent US8426623B2, “Surface modified nanoparticle and preparation method thereof” (National Tsing Hua University, priority 2010, dated 2013)

Assay: Anti-oxidative activity of phenol compound (H2O2 scavenging)
Settings: substance/H2O2=1, reacted with H2O2 before H2O2 was measured; versus unreacted H2O2 control; FIG. 1
Procedure: H2O2 was the tested ROS in testing anti-oxidative activity of HPPDA. There are 3 sets in this experiment, including H2O2, HPPDA/H2O2 and ascorbic acid/H2O2, where HPPDA/H2O2=1, ascorbic acid/H2O2=1, and HPPDA, ascorbic were respectively reacted with H2O2 before H2O2 was measured. The control is represented with H2O2 without undergoing any reaction.
Referring to FIG. 1, as the comparison result with control has shown, the concentration of H2O2 was lowered after reacted with ascorbic acid and HPPDA (# for significant difference, p<0.01). Particularly, H2O2 concentration was lowered by ascorbic acid with 30 μM and lowered by HPPDA with 40 μM; this means better H2O2 absorption by HPPDA than ascorbic acid.

Structure (SMILES) | H2O2 concentration lowered by [µM]
O=C(O)/C=C/C=C/c1ccc(O)cc1 [HPPDA, (2E,4E)-5-(4-hydroxyphenyl)penta-2,4-dienoic acid] | 40
O=C1O[C@H]([C@@H](O)CO)C(O)=C1O [ascorbic acid] | 30
